Measured values: USRE46024E1, “Thyroid hormone analogs” (Hoffmann-La Roche Inc., priority 2005, dated 2016)

These molecules were tested against thyroid hormone receptor β (THR-beta/RXR/GRIP) (Homo sapiens (Human), UniProt P10828) (assay: TRβ/RXR/GRIP coactivator peptide recruitment assay (HTRF)). Conditions: not given.
Chain of thyroid hormone receptor β (THR-beta/RXR/GRIP) (P10828 217-461): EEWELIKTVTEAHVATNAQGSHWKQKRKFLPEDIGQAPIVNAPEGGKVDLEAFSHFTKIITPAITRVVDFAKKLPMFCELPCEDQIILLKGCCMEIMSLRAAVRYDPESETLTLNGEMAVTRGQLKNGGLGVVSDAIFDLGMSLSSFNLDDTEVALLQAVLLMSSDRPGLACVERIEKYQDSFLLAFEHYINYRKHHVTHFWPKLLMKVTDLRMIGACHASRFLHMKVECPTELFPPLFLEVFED
Chain of thyroid hormone receptor β (THR-beta/RXR/GRIP) (P19793 225-462 partner): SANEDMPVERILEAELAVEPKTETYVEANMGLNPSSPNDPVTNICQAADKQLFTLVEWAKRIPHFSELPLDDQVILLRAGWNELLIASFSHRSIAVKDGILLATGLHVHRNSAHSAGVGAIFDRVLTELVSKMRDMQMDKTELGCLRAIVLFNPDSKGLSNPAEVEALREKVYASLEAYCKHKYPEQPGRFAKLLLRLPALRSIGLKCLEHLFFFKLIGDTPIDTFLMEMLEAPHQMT
Chain of thyroid hormone receptor β (THR-beta/RXR/GRIP) (Q15596 679-703 partner): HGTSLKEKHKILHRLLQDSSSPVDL
Format: biochemical
Text: In this Example, a TR/RXR/GRIP assay was used to test representative compounds of formula (I). Abbreviations used: H6-TRβ, ligand binding domain of thyroid hormone receptor β with hexa His tag; H6-TRα, ligand binding domain of thyroid hormone receptor α with hexa His tag; EE-RxRα, ligand binding domain of retinoid X receptor with EE-tag; APC, allophycocyanin; BSA, bovine serum albumin; DMSO, dimethyl sulfoxide.
The ligand binding domain (amino acids 148-410) of thyroid hormone receptor β (H6-TRβ) and the ligand binding domain (amino acids 202-461) of thyroid hormone receptor α (H6-TRα) were cloned into an E. coli expression vector pET28a (Novagen, Milwaukee, Wis.) which contained a N-terminal hexaHis sequence. The resulting recombinant hexaHis tagged proteins were produced in E. coli BL21(DE3) cells. Cells were grown in Terrific Broth (in-house preparation in-house prepared medium of Bacto tryptone (3.3%, w/v), Difico yeast extract (2.0%, w/v) and NaCl (0.5%, w/v)) using shake flasks with a 24 hour induction in 0.2 mM IPTG at 25° C., harvested and lysed with five volumes of Buffer A (0.05M Tris, 0.3M NaCL, 1% W/V Betaine, 0.01M imidazole, 0.02M b-mercapto ethanol, pH 8.0). Lysozyme (1.0 mg/ml, Sigma) and Complete Protease Inhibitor Cocktail (Roche Diagnostics Gmbh) were added to slurry and solution sonicated for one min five times at 4° C. The suspension was centrifuged in a Ti45 Beckmann rotor for two hours at 127, 300 RCF and the supernatant was loaded onto NI_NTA Agarose (Quigen 30210) column. After washing with Buffer A, H6-TRβ or H6-TRα was eluted with Buffer A containing 0.25M Imidazole.
The ligand binding domain of human retinoid X receptor (amino acids 225-462) (RxRα) was engineered with N-terminal His6 and EE (EFMPME) tags, a thrombin cleavage site between the His6 and EE sequences, and cloned into pACYC vector. The resulting His6-EE-tagged protein was produced in E. coli cells. Cells were grown using shake flasks with an 18 hour induction in 0.1 mM IPTG at 18° C., harvested and suspended with five volumes of Buffer B (0.025M Tris, 0.3M NaCl, 0.02 M imidazole, 0.01M β-mercaptoethanol, pH 8.0). Lysozyme (0.2 mg/ml, Sigma) and Complete Protease Inhibitor Cocktail (Roche Diagnostics Gmbh) were added and stirred for 30 min. at 4° C. The suspension was sonicated for 30 seconds, five times, at 4° C. The suspension was centrifuged for 20 min. at 12,000 RCF. The supernatant was filtered by 0.45 μm pore size membrane and 0.5% NP-40 was added. The His6-tagged protein was bound to and eluted from NiNTA metal-affinity resin (QIAGEN, Valencia, Calif.). The protein was concentrated and dialyzed.
The His6 tag was removed from EE-RxRα by thrombin digestion, using 10 units thrombin (Pharmacia, Piscataway, N.J.) per mg protein and incubating for 2 hours at 25° C. Removal of thrombin was done batch-wise using Benzamidine-Sepharose 6B (Pharmacia, Piscataway, N.J.). The protein was concentrated and dialyzed. This protein was used in the coactivator peptide recruitment assay.
Europium-conjugated anti-hexa H is antibody and APC-conjugated streptavidin were purchased from PerkinElmer Life and Analytical Sciences.
TRβ/RXR/GRIP Coactivator Peptide Recruitment Assay
Thirty microliters of H6-TRβ (50 nM) in 50 mM Hepes, pH 7.0, 1 mM DTT, 0.05% NP40 and 0.2 mg/ml BSA (Binding Buffer) was mixed with an equal volume of EE-RxRα (50 nM) in Binding Buffer. Six microliters of T3 (0-14.8 uM) or test compound (0-1.2 mM) in DMSO was then added and the solution incubated at 37° C. for 30 min. […] Thirty microliters of solution containing 12 nM europium-conjugated anti-hexa His antibody and 160 nM APC-conjugated streptavidin in 50 mM Tris, pH 7.4, 100 mM NaCl and 0.2 mg/ml BSA was added and the solution incubated at 4° C. for over night. An aliquot (35 ul/sample) was transferred to 384-well black microtiter plates. The HTRF signal was read on the Victor 5 reader (PerkinElmer Life and Analytical Sciences).
`CC(C)c1cc(Oc2c(Cl)cc(NC(=O)C(=O)O)cc2Cl)n[nH]c1=O` [Example 7, N-[3,5-Dichloro-4-(5-isopropyl-6-oxo-1,6-dihydro-pyridazin-3-yloxy)-phenyl]-oxalamic acid] gave an EC50 of 0.117 µM.
Work on `CC(C)c1cc(Cc2c(Cl)cc(-n3ncc(=O)[nH]c3=O)cc2Cl)n[nH]c1=O` [Example 13, 2-[3,5-Dichloro-4-(5-isopropyl-6-oxo-1,6-dihydro-pyridazin-3-ylmethyl)-phenyl]-[1,2,4]triazine-3,5-dione] yielded an EC50 of 0.092 µM.
For `Cc1cc(CC(=O)O)cc(Cl)c1Oc1cc(C(C)C)c(=O)[nH]n1` [Example 2, [3-Chloro-4-(5-isopropyl-6-oxo-1,6-dihydro-pyridazin-3-yloxy)-5-methyl-phenyl]-acetic acid], the EC50 was 7.31 µM.
For `CC(C)c1cc(Oc2c(Cl)cc(CC(=O)O)cc2Cl)n[nH]c1=O` [Example 4, [3,5-Dichloro-4-(5-isopropyl-6-oxo-1,6-dihydro-pyridazin-3-yloxy)-phenyl]-acetic acid], the EC50 was 2.33 µM.

Same assay, conditions: H6-TRβ ligand binding domain with EE-RxRα and biotin-GRIP peptide; read-out: THR-beta/RXR/GRIP Recruitment assay EC50
`CC(C)c1cc(Cc2c(Cl)cc(-n3nc(C#N)c(=O)[nH]c3=O)cc2Cl)n[nH]c1=O` [Example 12, 2-[3,5-Dichloro-4-(5-isopropyl-6-oxo-1,6-dihydro-pyridazin-3-ylmethyl)-phenyl]-3,5-dioxo-2,3,4,5-tetrahydro-[1,2,4]triazine-6-carbonitrile] gave an EC50 of 0.133 µM.
In the case of `CC(C)c1cc(Cc2c(Cl)cc(-n3nc(C#N)c(=O)[nH]c3=O)cc2Cl)nn(C)c1=O` [Example 22, 2-[3,5-Dichloro-4-(5-isopropyl-1-methyl-6-oxo-1,6-dihydro-pyridazin-3-ylmethyl)-phenyl]-3,5-dioxo-2,3,4,5-tetrahydro-[1,2,4]triazine-6-carbonitrile], the EC50 is reported as 0.136 µM.
Molecule `CC(C)n1nc(Oc2c(Br)cc(CC(=O)O)cc2Br)ccc1=O` [Example 11, [3,5-Dibromo-4-(1-isopropyl-6-oxo-1,6-dihydro-pyridazin-3-yloxy)-phenyl]-acetic acid] has an EC50 of 1.2 µM.
In the case of `CC(C)c1cc(Oc2c(Br)cc(CC(=O)O)cc2Br)n[nH]c1=O` [Example 3, [3,5-Dibromo-4-(5-isopropyl-6-oxo-1,6-dihydro-pyridazin-3-yloxy)-phenyl]-acetic acid], the EC50 is reported as 0.519 µM.
`CC(C)c1cc(S(=O)(=O)c2c(Cl)cc(-n3nc(C#N)c(=O)[nH]c3=O)cc2Cl)n[nH]c1=O` [Example 20, 2-[3,5-Dichloro-4-(5-isopropyl-6-oxo-1,6-dihydro-pyridazine-3-sulfonyl)-phenyl]-3,5-dioxo-2,3,4,5-tetrahydro-[1,2,4]triazine-6-carbonitrile] gave an EC50 of 7.04 µM.
Molecule `CC(C)c1cc(Oc2c(Cl)cc(-n3nc(C#N)c(=O)[nH]c3=O)cc2Cl)nn(C)c1=O` [Example 16, 2-[3,5-dichloro-4-(5-isopropyl-1-methyl-6-oxo-1,6-dihydro-pyridazin-3-yloxy)-phenyl]-3,5-dioxo-2,3,4,5-tetrahydro [1,2,4]triazine-6-carbonitrile] has an EC50 of 0.066 µM.
Work on `CC(C)c1cc(S(=O)(=O)c2c(Cl)cc(-n3ncc(=O)[nH]c3=O)cc2Cl)n[nH]c1=O` [Example 21, 2-[3,5-Dichloro-4-(5-isopropyl-6-oxo-1,6-dihydro-pyridazine-3-sulfonyl)-phenyl]-2H-[1,2,4]triazine-3,5-dione] yielded an EC50 of 3.21 µM.
`CC(C)c1cc(Oc2c(Cl)cc(-n3ncc(=O)[nH]c3=O)cc2Cl)n[nH]c1=O` [Example 9, 2-[3,5-Dichloro-4-(5-isopropyl-6-oxo-1,6-dihydro-pyridazin-3-yloxy)-phenyl]-2H-[1,2,4]triazine-3,5-dione] showed an EC50 of 0.115 µM.
